20 molecules from US4684620A, “Cyclic polypeptides having mu-receptor specificity” (Gibson-Stephens Neuropharmaceuticals, Inc., priority 1984, dated 1987) can be followed below.

The IC50 is the point on the concentration scale where inhibition reaches its midpoint. Read a high IC50 as weaker potency.

A short description of series [1]: Partition coefficient, octanol-water. The class given is physicochemical. The following applies: read-out: Partition Coefficient, Octanol-Water, log P.
The target in a further series is T1, mu opioid receptor (Rattus norvegicus, UniProt P33535).
T1 construct: Adult Sprague-Dawly rats (150-200g) were killed by decapitation; The brain was rapidly removed and homogenized; from tissue; host or cells: rat brain membranes (Sprague-Dawley)
In words: [3H]naloxone receptor binding to rat brain homogenates. The following applies: for IC50: 1 nM [3H]naloxone. How it is done:
(§1) Adult Sprague-Dawly rats (150-200g) were killed by decapitation. The brain was rapidly removed and homogenized (10% wt/vol in 0.32 M sucrose in a glass homogenizer with a motor driven teflon pestle. The homogenate was then centrifuged at 43,000×g for 10 min and the resulting pellet was resuspended in 50 mM Trisma buffer (pH 7.4 at 25° C.) containing 5 mM MgCl2, 2 mg/ml BSA and 20 mg/ml of bacitracin, using a Polytron homogenizer (15 sec, setting 5). The centrifugation and resuspension step was repeated once.
(§2) For all the inhibition studies, rat brain plasma membranes (100 μl ) were incubated at 25° C. for 60 min in a total of 1.0 ml of 50 mM Trisma buffer containing 220,000 dpm ^125 I-CGP 23,996. See Czernik, A. J. and Petrack, G., J. Biol. Chem. 258,5525-5530 (1983) which is herein specifically incorporated by reference. 1 nM [^3 H-]naloxone (42.3 Ci/mmol, New England Nuclear) or 1 nM [^3 H]DADLE ([D-Ala^2, D-Ala^5 ]enkephalin), [^3 H-3'5'-Tyr]DADLE, 43 Ci/mmol, New England Nuclear, and at least nine concentrations of our synthetic analogues. All incubations were done in duplicate and each compound was tested at least five times. The concentration of test compounds was determined by quantitative amino acid analysis or from published molar extinction coefficients. […] The data were analyzed using nonlinear least squares regression analysis.

The next series addresses T2, δ-opiate receptors (Rattus norvegicus, UniProt P33533).
T2 construct: Adult Sprague-Dawly rats (150-200g) were killed by decapitation; The brain was rapidly removed and homogenized; from tissue; host or cells: rat brain membranes (Sprague-Dawley)
Nature of the series: [3H]DADLE receptor binding to rat brain homogenates. Conditions: for IC50: 1 nM [3H]DADLE. How it is done: as §1, §2

Structures are written as SMILES. Positions of bridges follow the written chain, without caps; N, C: chain ends. Non-standard residues stand in square brackets, D forms with d. Residues, ends and D or L forms follow the SMILES beside them. Asu = N[C@@H](CCCCCC(=O)O)C(=O)O; dPhg = N[C@@H](C(=O)O)c1ccccc1; Pen = CC(C)(S)[C@H](N)C(=O)O

T1 sequence (P33535 whole entry): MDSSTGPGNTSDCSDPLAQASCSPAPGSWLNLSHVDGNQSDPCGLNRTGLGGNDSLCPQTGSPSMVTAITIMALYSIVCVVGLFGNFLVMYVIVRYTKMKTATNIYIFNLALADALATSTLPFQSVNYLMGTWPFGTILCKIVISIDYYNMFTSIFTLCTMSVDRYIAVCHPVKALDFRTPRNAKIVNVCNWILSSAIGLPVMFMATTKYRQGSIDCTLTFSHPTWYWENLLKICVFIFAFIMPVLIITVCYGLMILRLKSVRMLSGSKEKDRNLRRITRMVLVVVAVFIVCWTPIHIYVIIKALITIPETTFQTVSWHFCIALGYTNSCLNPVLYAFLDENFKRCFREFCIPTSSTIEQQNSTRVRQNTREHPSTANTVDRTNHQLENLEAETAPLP
T2 sequence (P33533 whole entry): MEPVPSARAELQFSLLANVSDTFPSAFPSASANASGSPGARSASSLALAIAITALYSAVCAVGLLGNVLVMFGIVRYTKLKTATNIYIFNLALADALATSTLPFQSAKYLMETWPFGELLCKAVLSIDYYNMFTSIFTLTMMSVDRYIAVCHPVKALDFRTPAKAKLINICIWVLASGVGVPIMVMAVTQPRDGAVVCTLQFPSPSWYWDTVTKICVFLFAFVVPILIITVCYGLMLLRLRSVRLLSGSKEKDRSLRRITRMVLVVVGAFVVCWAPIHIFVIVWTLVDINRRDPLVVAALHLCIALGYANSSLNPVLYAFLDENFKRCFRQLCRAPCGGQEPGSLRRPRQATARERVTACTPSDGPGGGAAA

In the case of `C[C@@H](O)[C@H](NC(=O)[C@H]1NC(=O)[C@H]([C@@H](C)O)NC(=O)[C@H](CCCCN)NC(=O)[C@@H](Cc2c[nH]c3ccccc23)NC(=O)[C@H](Cc2ccccc2)NC(=O)[C@@H](NC(=O)[C@H](N)Cc2ccccc2)CSSC1(C)C)C(=O)O` [III], the logP in series [1] was -0.71.

With `C[C@@H](O)[C@H](NC(=O)[C@H]1NC(=O)[C@H]([C@@H](C)O)NC(=O)[C@H](CCCCN)NC(=O)[C@@H](Cc2c[nH]c3ccccc23)NC(=O)[C@H](Cc2ccccc2)NC(=O)[C@@H](NC(=O)[C@H](N)Cc2ccccc2)C(C)(C)SSC1(C)C)C(=O)O` [drawing 30], the figures for the IC50 on mu opioid receptor and on δ-opiate receptors were 8.27 µM and 11.1 µM, respectively.

Regarding `C[C@@H](O)[C@H](NC(=O)[C@@H]1CSSC(C)(C)[C@H](NC(=O)[C@H](N)Cc2ccccc2)C(=O)N[C@@H](Cc2ccc(O)cc2)C(=O)N[C@H](Cc2c[nH]c3ccccc23)C(=O)N[C@@H](CCCCN)C(=O)N[C@@H]([C@@H](C)O)C(=O)N1)C(=O)O`, the IC50 was found to be 0.471 µM at mu opioid receptor and 2.56 µM at δ-opiate receptors.

Consider `C[C@@H](O)[C@H](NC(=O)[C@H]1NC(=O)[C@H]([C@@H](C)O)NC(=O)[C@H](CCCCN)NC(=O)[C@@H](Cc2c[nH]c3ccccc23)NC(=O)[C@H](Cc2ccccc2)NC(=O)[C@@H](NC(=O)[C@H](N)Cc2ccccc2)CSSC1(C)C)C(=O)O` [drawing 27], for which the half-inhibitory concentration (IC50) was determined as 0.926 µM at mu opioid receptor and 5.42 µM at δ-opiate receptors.

On to `C[C@@H](O)[C@H](NC(=O)[C@H]1NC(=O)[C@H]([C@@H](C)O)NC(=O)[C@H](CCCCN)NC(=O)[C@@H](Cc2c[nH]c3ccccc23)NC(=O)[C@H](Cc2ccc(O)cc2)NC(=O)[C@@H](NC(=O)[C@H](N)Cc2ccccc2)CSSC1(C)C)C(N)=O` [drawing 24], for which the IC50 at mu opioid receptor came out at 0.0035 µM; on δ-opiate receptors it was 0.952 µM.

As for `C[C@H](N)C(=O)NCC(=O)N[C@H]1CSSC[C@@H](C(=O)O)NC(=O)[C@H](CO)NC(=O)[C@H]([C@@H](C)O)NC(=O)[C@H](Cc2ccccc2)NC(=O)[C@H]([C@@H](C)O)NC(=O)[C@H](CCCCN)NC(=O)[C@H](Cc2c[nH]c3ccccc23)NC(=O)[C@H](Cc2ccccc2)NC(=O)[C@H](Cc2ccccc2)NC(=O)[C@H](CC(N)=O)NC(=O)[C@H](CCCCN)NC1=O` [SOMATOSTATIN, somatostatin, reference compound], the “[3H]Naloxone nH” value at mu opioid receptor stood at 1.02. In addition, the “[3H]DADLE nH” value at δ-opiate receptors was determined as 1.09.

For `C[C@@H](O)[C@H](NC(=O)[C@H]1NC(=O)[C@H]([C@@H](C)O)NC(=O)[C@H](CCCCN)NC(=O)[C@@H](Cc2c[nH]c3ccccc23)NC(=O)[C@H](Cc2ccccc2)NC(=O)[C@@H](NC(=O)[C@H](N)Cc2ccccc2)CSSC1(C)C)C(N)=O` [drawing 25], the 50% inhibitory concentration (IC50) came out at 0.0099 µM at mu opioid receptor and 1.1 µM on δ-opiate receptors.

Consider `C[C@@H](O)[C@H](NC(=O)[C@H]1NC(=O)[C@H]([C@@H](C)O)NC(=O)[C@H](CCCCN)NC(=O)[C@@H](Cc2c[nH]c3ccccc23)NC(=O)[C@H](Cc2ccccc2)NC(=O)[C@@H](NC(=O)[C@H](N)Cc2ccccc2)C(C)(C)SSC1(C)C)C(=O)O` [Example V], for which the logP in series [1] worked out at 0.

`C[C@@H](O)[C@H](NC(=O)[C@@H]1CSSC(C)(C)[C@H](NC(=O)[C@H](N)c2ccccc2)C(=O)N[C@@H](Cc2ccccc2)C(=O)N[C@H](Cc2c[nH]c3ccccc23)C(=O)N[C@@H](CCCCN)C(=O)N[C@@H]([C@@H](C)O)C(=O)N1)C(=O)O` [drawing 28] (H-[dPhg][Pen]F[dW]KTCT-OH; disulfide 2-7): the 50% inhibitory concentration (IC50) on mu opioid receptor worked out at 2.5 µM; on δ-opiate receptors, 13.5 µM.

For `C[C@@H](O)[C@H](NC(=O)[C@H]1NC(=O)[C@H]([C@@H](C)O)NC(=O)[C@H](CCCCN)NC(=O)[C@@H](Cc2c[nH]c3ccccc23)NC(=O)[C@H](Cc2ccccc2)NC(=O)[C@@H](NC(=O)[C@H](N)Cc2ccccc2)CSSC1(C)C)C(N)=O` [VII], in series [1], the logP was found to be 0.36.

On to `C[C@@H](O)[C@H](NC(=O)[C@@H]1CSSC(C)(C)[C@H](NC(=O)[C@H](N)c2ccccc2)C(=O)N[C@@H](Cc2ccccc2)C(=O)N[C@H](Cc2c[nH]c3ccccc23)C(=O)N[C@@H](CCCCN)C(=O)N[C@@H]([C@@H](C)O)C(=O)N1)C(=O)O` [VIII] (H-[dPhg][Pen]F[dW]KTCT-OH; disulfide 2-7), for which the logP in series [1] was -0.57.

As to `C[C@@H](O)[C@H](NC(=O)[C@H]1NC(=O)[C@H]([C@@H](C)O)NC(=O)[C@H](CCCCN)NC(=O)[C@@H](Cc2c[nH]c3ccccc23)NC(=O)[C@H](Cc2ccc(O)cc2)NC(=O)[C@@H](NC(=O)[C@H](N)Cc2ccccc2)CSSC1(C)C)C(N)=O` [Example VI], the logP in series [1] is -0.2.

Consider `C[C@@H](O)[C@H](NC(=O)[C@@H]1CSSC[C@H](NC(=O)[C@H](N)Cc2ccccc2)C(=O)N[C@@H](Cc2ccccc2)C(=O)N[C@H](Cc2c[nH]c3ccccc23)C(=O)N[C@@H](CCCCN)C(=O)N[C@@H]([C@@H](C)O)C(=O)N1)C(=O)O` [drawing 31], for which the IC50 was determined as 2.58 µM on mu opioid receptor and 3.14 µM at δ-opiate receptors.

`CC(=O)N[C@@H](Cc1ccccc1)C(=O)N[C@H](Cc1c[nH]c2ccccc12)C(=O)N[C@@H](CCCCN)C(=O)N[C@H](C(=O)O)[C@@H](C)O` [AcPhe --D-TrpLysThr, reference compound] (Ac-F[dW]KT-OH): the values for the half-maximal inhibitory concentration (IC50) on mu opioid receptor and at δ-opiate receptors were 51.5 µM and 5.84 µM, respectively.

As to `C[C@@H](O)[C@H](NC(=O)[C@@H]1CSSC[C@H](NC(=O)[C@H](N)Cc2ccccc2)C(=O)N[C@@H](Cc2ccccc2)C(=O)N[C@H](Cc2c[nH]c3ccccc23)C(=O)N[C@@H](CCCCN)C(=O)N[C@@H]([C@@H](C)O)C(=O)N1)C(=O)O` [II], in series [1], the logP was -0.77.

Regarding `C[C@@H](O)[C@H](NC(=O)[C@@H]1CSSC(C)(C)[C@H](NC(=O)[C@H](N)Cc2ccccc2)C(=O)N[C@@H](Cc2ccccc2)C(=O)N[C@H](Cc2c[nH]c3ccccc23)C(=O)N[C@@H](CCCCN)C(=O)N[C@@H]([C@@H](C)O)C(=O)N1)C(=O)O` [drawing 32], the IC50 was 61 µM at mu opioid receptor and 38.1 µM on δ-opiate receptors.

Take `C[C@@H](O)[C@H](NC(=O)[C@@H]1CSSC(C)(C)[C@H](NC(=O)[C@H](N)Cc2ccccc2)C(=O)N[C@@H](Cc2ccccc2)C(=O)N[C@H](Cc2c[nH]c3ccccc23)C(=O)N[C@@H](CCCCN)C(=O)N[C@@H]([C@@H](C)O)C(=O)N1)C(=O)O` [IV]: the logP in series [1] was -0.22.

With `C[C@@H](O)[C@H](NC(=O)[C@H]1NC(=O)[C@H]([C@@H](C)O)NC(=O)[C@H](CCCCN)NC(=O)[C@@H](Cc2c[nH]c3ccccc23)NC(=O)[C@H](Cc2ccc(O)cc2)NC(=O)[C@@H](NC(=O)[C@H](N)Cc2ccccc2)CSSC1(C)C)C(=O)O` [drawing 26], the IC50 at mu opioid receptor worked out at 0.293 µM; on δ-opiate receptors, 3.76 µM.

Take `C[C@@H](O)[C@H](NC(=O)[C@H]1NC(=O)[C@H]([C@@H](C)O)NC(=O)[C@H](CCCCN)NC(=O)[C@@H](Cc2c[nH]c3ccccc23)NC(=O)[C@H](Cc2ccc(O)cc2)NC(=O)[C@@H](NC(=O)[C@H](N)Cc2ccccc2)CSSC1(C)C)C(=O)O` [Example 1]: the logP in series [1] is 0.7.

In the case of `C[C@@H](O)[C@@H]1NC(=O)[C@H](Cc2ccc(O)cc2)NC(=O)[C@H]([C@@H](C)O)NC(=O)[C@H](CCCCN)NC(=O)[C@H](Cc2c[nH]c3ccccc23)NC(=O)[C@H](Cc2ccccc2)NC(=O)[C@H](Cc2ccccc2)NC(=O)[C@H](CC(N)=O)NC(=O)[C@H](CCCCN)NC(=O)CCCCC[C@@H](C(=O)O)NC(=O)[C@H](CO)NC1=O` [CGP 23,996, des-Ala^1,Gly^2-desamino-Cys3-[Tyr^11]-dicarba^3,14-somatostatin, reference compound] (KNFFWKTYTS[Asu]-OH; lactam N-11), the IC50 on mu opioid receptor and on δ-opiate receptors was greater than 100 µM in each case.
